Experimental data from patent US12612424B2, “HPK1 inhibitors and uses thereof” (Regor Pharmaceuticals, Inc., priority 2019, dated 2026).
Like-named read-outs stand apart in the source and are kept apart here.

Target: T1, JAK3 (Homo sapiens, UniProt P52333)
T1 construct: purchased Thermo fisher PV3855
Experiment: JAK3 biochemical assay (ADP-GLO Kinase Assay)
Conditions: for JAKs/HPK1 IC50 Ratio, B* / JAKs/HPK1 IC50 Ratio, N*: ratio of JAK3 IC50 to HPK1 IC50; for JAKs/HPK1 IC50 Ratio, B*: first testing facility; for JAKs/HPK1 IC50 Ratio, N*: second testing facility
Method in brief: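 Luminescent ADP-Glo readout after a 60 min, 25 °C reaction of JAK3 (0.78 ng) on Poly(E4Y1) (0.2 μg/μL) at 4 μM ATP, Tris pH 7.5 buffer with MgCl2, BSA and DTT. Compounds tested 10 μM down to 0.508 nM in 3-fold steps; % inhibition normalised to DMSO and reference-compound controls, IC50 from three-parameter fit.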

[1] = B*: testing performed in a first testing facility, read-out: JAK3 IC50 (nM) Relative, B*
[2] = N*: testing performed in a second testing facility, read-out: JAK3 IC50 (nM) Relative, N*

T1 sequence (P52333 781-1124 limits assumed): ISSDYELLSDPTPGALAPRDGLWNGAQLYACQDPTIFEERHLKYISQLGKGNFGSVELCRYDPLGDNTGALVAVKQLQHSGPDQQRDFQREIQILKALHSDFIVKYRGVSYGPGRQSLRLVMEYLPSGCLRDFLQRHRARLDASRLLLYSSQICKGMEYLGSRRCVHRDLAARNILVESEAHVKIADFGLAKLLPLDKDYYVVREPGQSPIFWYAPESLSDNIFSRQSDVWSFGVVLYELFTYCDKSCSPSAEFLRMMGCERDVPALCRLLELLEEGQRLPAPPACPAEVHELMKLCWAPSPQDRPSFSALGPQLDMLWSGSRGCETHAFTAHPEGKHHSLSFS

IC50 [1] [nM]	JAKs/HPK1 IC50 Ratio, B*	IC50 [2] [nM]	JAKs/HPK1 IC50 Ratio, N*	Structure (SMILES)
100 to 500	78	–	–	COc1cc2c(cc1Nc1ncc(Cl)c(-n3cc(C(=O)O)c4ccccc43)n1)CN(C)CC2 [Example 35]
≤ 100	140	–	–	COc1cc2c(cc1Nc1ncc(Cl)c(N3CC(C(N)=O)c4ccccc43)n1)CN(C)CC2 (stereo not shown) [Example 33, 1-(5-Chloro-2-((6-methoxy-2-methyl-1,2,3,4-tetrahydroisoquinolin-7-yl)amino)pyrimidin-4-yl)indoline-3-carboxamide]
> 1000	79	–	–	COc1cc2c(cc1Nc1ncc(Cl)c(-n3ncc4ccccc43)n1)CN(C)CC2 [Example 24, N-(5-Chloro-4-(1H-indazol-1-yl)pyrimidin-2-yl)-6-methoxy-2-methyl-1,2,3,4-tetrahydroisoquinolin-7-amine]
500 to 1000	–	100 to 500	–	COc1nc2c(cc1Nc1ncc(Cl)c(N3CCc4ccccc43)n1)CN(C)CC2 [Example 19, N-(5-chloro-4-(indolin-1-yl)pyrimidin-2-yl)-2-methoxy-6-methyl-5,6,7,8-tetrahydro-1,6-naphthyridin-3-amine]
100 to 500	88	–	–	COc1cc2c(cc1Nc1ncc(Cl)c(N3CCc4cc(F)ccc43)n1)CN(C)CC2 [Example 20, N-(5-chloro-4-(5-fluoroindolin-1-yl)pyrimidin-2-yl)-6-methoxy-2-methyl-1,2,3,4-tetrahydroisoquinolin-7-amine]
500 to 1000	101	–	–	COc1cc2c(cc1Nc1ncc(Cl)c(-n3cc(C(N)=O)c4ccccc43)n1)CN(C)CC2 [Example 34]
500 to 1000	223	100 to 500	286	COc1nc2c(cc1Nc1ncc(Cl)c(N3CCc4ncccc43)n1)CN(C)CC2 [Example 29, N-(5-Chloro-4-(2,3-dihydro-1H-pyrrolo[3,2-b]pyridin-1-yl)pyrimidin-2-yl)-2-methoxy-6-methyl-5,6,7,8-tetrahydro-1,6-naphthyridin-3-amine]
100 to 500	218	–	–	COc1cc2c(cc1Nc1ncc(Cl)c(N3CC(C)(C)c4ccccc43)n1)CN(C)CC2 [Example 25, N-(5-Chloro-4-(3,3-dimethylindolin-1-yl)pyrimidin-2-yl)-6-methoxy-2-methyl-1,2,3,4-tetrahydroisoquinolin-7-amine]
> 1000	280	–	–	COc1cc2c(cc1Nc1ncc(Cl)c(N3CCc4ccc(F)cc43)n1)CN(C)CC2 [Example 21, N-(5-chloro-4-(6-fluoroindolin-1-yl)pyrimidin-2-yl)-6-methoxy-2-methyl-1,2,3,4-tetrahydroisoquinolin-7-amine]
> 1000	285	> 1000	>558	COc1cc2c(cc1Nc1ncc(Cl)c(-n3cc(P(C)(C)=O)c4ccccc43)n1)CN(C)CC2 [Example 1, (1-(5-Chloro-2-((6-methoxy-2-methyl-1,2,3,4-tetrahydroisoquinolin-7-yl)amino)pyrimidin-4-yl)-1H-indol-3-yl)dimethylphosphine oxide]
≤ 100	90	–	–	COc1cc2c(cc1Nc1ncc(Cl)c(N3CC(C(=O)O)c4ccccc43)n1)CN(C)CC2 (stereo not shown) [Example 32, 1-(5-Chloro-2-((6-methoxy-2-methyl-1,2,3,4-tetrahydroisoquinolin-7-yl)amino)pyrimidin-4-yl)indoline-3-carboxylic acid]
100 to 500	59	–	–	COc1cc2c(cc1Nc1ncc(Cl)c(N3CCc4ccccc43)n1)CNCC2 [Example 23, N-(5-chloro-4-(indolin-1-yl)pyrimidin-2-yl)-6-methoxy-1,2,3,4-tetrahydroisoquinolin-7-amine]
–	–	> 1000	287	COc1cc2c(cc1Nc1ncc3ccn(-c4ccccc4)c3n1)CN(C)CC2 [Example 36, 6-methoxy-2-methyl-N-(7-phenyl-7H-pyrrolo[2,3-d]pyrimidin-2-yl)-1,2,3,4-tetrahydroisoquinolin-7-amine]
> 1000	223	–	–	COc1cc2c(cc1Nc1ncc(Cl)c(N3CCc4ccccc43)n1)CN(C(C)C)CC2 [Example 22, N-(5-chloro-4-(indolin-1-yl)pyrimidin-2-yl)-2-isopropyl-6-methoxy-1,2,3,4-tetrahydroisoquinolin-7-amine]
–	–	> 1000	608	COc1cc2c(cc1Nc1ncc3ccn(-c4ccccn4)c3n1)CN(C)CC2 [Example 37, 6-Methoxy-2-methyl-N-(7-(pyridin-2-yl)-7H-pyrrolo[2,3-d]pyrimidin-2-yl)-1,2,3,4-tetrahydroisoquinolin-7-amine]
